Measurements from patent US20230233515A1, “PHOTODYNAMIC ANTI-GRAM-POSITIVE BACTERIAL ACTIVITY OF PHARMACEUTICAL-GRADE ROSE BENGAL” (priority 2021, published 2023).
≈ marks a conversion by molar mass, not a printed value. Where “and” joins values, the source holds several entries; their conditions need not be identical. Equal values may be shown once. Read-outs that look alike come from different tables or passages of the source.

Experiments:
[1] = tested on: M.smegmatis 607™ (RB mutant); format: cell-based, Mycobacterium smegmatis; details: for MIC (µg/mL) against M.smegmatis 607™ (RB mutant): triplicate
[2] = tested on: M.smegmatis 607™ (wild-type); assay: MIC against M.smegmatis, dark; format: cell-based, Mycobacterium smegmatis; details: dark condition, triplicate
Vero cells = assay: Cytotoxicity with Vero cells under fluorescent light (confluence); details: fluorescent light; for confluence lost: 200 µM
Description: (§1) FIG. 5 is a graph showing the time in hours (h) for cell confluence at four concentrations of HB-RBf (zero µM, 100 µM, 200 µM and 300 µM) when irradiated under fluorescent light;
(§2) Cytotoxicity assays for RB in Vero cells were performed in a 24-well plate.
(§3) Images were collected by AMG EVOS xl transmitted light imaging microscope. […] (5% CO2).

[3] = as above; details: African green monkey, selectivity index (SI), cytotoxicity versus antibacterial activity, 1 h treatment time
Description: as §1, §2, §3

E.faecium NR-32065 = assay: Time-kill kinetic assay; details: twice the RB MIC; fluorescent light
Description: (§6) Thus, the time-course experiments on these bacteria were conducted under the fluorescent light for 2 h (0-1,130 J/cm^2) at concentrations of about 2 to about 8-fold the MIC (RB). Reference molecules used were linezolid (10 µg/mL) and ciprofloxacin (10 µg/mL) for the Gram-positive bacteria and amikacin (10 µg/mL) and meropenem (10 µg/mL) for the Gram-negative bacterium.
(§7) Time-kill kinetics assay for antimicrobial agents was performed using CLSI guidelines with a minor modification. The multiple time points in time-kill kinetics assays for RB and the reference molecules were performed. The bacterial culture grown in the broth was diluted to a concentration between 1 × 10^8 and 5.0 × 10^9 CFU/mL.
(§8) A stock dilution of the antimicrobial test substance was prepared at approximately 2- to about 8-fold the MIC values. The test compounds were inoculated with equal volumes of the specified bacteria placed in a 96-well plate. The microtiter plates were incubated at 37° C. and duration (1-120 min) under the fluorescent light (conditions are summarized in the figure legend). An aliquot of the culture medium was taken from each well and a serial dilution was performed. The diluted culture was incubated at 37° C. and CFU/mL were counted.

[4] = tested on: air-exposed biofilms of S.aureus BAA-44™; assay: Air-exposed biofilms on agar plate; format: cell-based, Staphylococcus aureus; details: for CFU/mL (Dilution 5.8 × 10^11): treated at 0 and 30 min, 1 h, 17W fluorescent light, counted after 24 h at 37° C.
Description: The data of Table 3, below, summarize the effect of RB on air-exposed biofilms of a MRSA, Saureus BAA-44™, under fluorescent light (17 W, 1 h, 0.57 KJ/cm^2). Spraying RB (5.0 µg/mL or 10 µg/mL solution, 250 µL (twice)) and fluorescent light exposure (for 1 h) eradicated significant viable bacteria in the biofilms with a 4-log reduction (determined at a dilution of 5.8×10^9).
The bacteria (about 1.0x10^4) were spread on an agar plate and incubated in an oven at 37° C. for 2 days. The air-exposed biofilms on an agar plate were treated with PV-10. After 1 h under fluorescent light (0.57 KJ/cm^2), saline (2 mL) was added to the agar surface. The bacterial suspension ([…]) was taken into a sterile tube, and serial dilutions were performed. The diluted sample ([…]) was spread on agar plates and incubated at 37° C. for 24 h CFU/mL were counted.

[5] = tested on: three E.coli, two Pseudomonas aeruginosa, two Klebsiella pneumoniae, and two Acinetobacter baumannii strains; assay: MIC, broth dilution; details: entries 31-39
Description: (§9) We have reinvestigated the bactericidal activity of pharmaceutical-grade of RB against a battery of Gram-positive and -negative aerobic bacteria including Mycobacterium spp. and a Saccharomyces sp. under different light sources (fluorescence, LED, and sun light) and in a dark condition. Fluorescent light used was 17W (1,647 lumens, 63.8 cm^2) and LED was a 9.5 W (800 lumens, 28.3 cm^2), specifics about which are discussed hereinafter.
(§10) Minimum inhibitory concentrations (MICs) were determined by broth dilution microplate alamar blue assay or by OD measurement. All compounds were stored in DMSO or saline (1 mg/100 µL concentration). This concentration was used as the stock solution for all MIC studies. Each compound from stock solution was placed in the first well of a sterile 96 well plate and a serial dilution was conducted with the culturing broth (total volume of 10 µL). The bacterial suspension at log phase (190 µL) was added to each well (total volume of 200 µL), and was incubated for 24 h at 37° C.

Enterococcus faecalis = assay: MIC, broth dilution; format: cell-based; details: drug-susceptible and drug-resistant incl. vancomycin-resistant strains; entries 17-21
Text: (§4) All studies were done in triplicate. […] “g” = MIC was not determined.

Mycobacterium spp. = assay: MIC, broth dilution; format: cell-based
Text: as §4

Gram-negative bacteria = assay: MIC, broth dilution; format: cell-based; details: dark condition; all Gram-negative bacteria of Table 1, entries 31-47
Text: as §4

[6] = tested on: Gram-positive Bacillus spp.; assay: MIC, broth dilution; format: cell-based; details: illumination; entries 1-3 of Table 1
Text: as §4

Gram-positive bacteria = assay: MIC, broth dilution; format: cell-based
Text: as §4

Staphylococcus aureus = assay: MIC, broth dilution; format: cell-based
Text: as §4

a S.aureus strain = details: 19.5 µg/mL RB, 10 min visible light, light fluence dose 30 J/cm^2; cited from earlier work
[7] = tested on: Staphylococcus epidermidis; assay: MIC, broth dilution; details: aerobic condition; entry 16
Description: as §9, §10

Streptococcus salivarius = assay: MIC, broth dilution; details: entry 23
Description: as §9, §10

S.aureus 71080 (VRS8) = assay: Time-kill kinetic assay; details: twice the RB MIC; fluorescent light
Description: as §6, §7, §8

Streptococcus pneumoniae = assay: MIC, broth dilution; details: entry 24
Description: as §9, §10

[8] = at the therapeutic concentrations; cited from earlier work
[9] = tested on: biofilms of S.aureus 6508; assay: Anti-biofilm assay; format: cell-based, Staphylococcus aureus; details: for viable bacteria in biofilm: dark condition
Description: We applied linezolid as a positive control at very high concentration of 600 µg/mL (>100xMIC for the planktonic cells) in our biofilm assays.
The biofilms were generated on 12-well plates by incubating each bacterium for five days. The planktonic bacteria in the culture media were gently removed, and fresh media were placed. […] An aliquot of each culture was diluted (x10,000 or x100,000) on agar plates at 37° C. for 24 h. CFU/mL was counted.

[10] = tested on: Gram-positive and -negative bacteria; assay: Time-kill kinetics, general statements
Description: as §7
A stock dilution of the antimicrobial test substance was prepared at approximately 2- to about 8-fold the MIC values. The test compounds were inoculated with equal volumes of the specified bacteria placed in a 96-well plate. The microtiter plates were incubated at 37° C. and duration (1-120 min) under the fluorescent light (conditions are summarized in the figure legend). An aliquot of the culture medium was taken from each well and a serial dilution was performed. The diluted culture was incubated at 37° C. and CFU/mL were counted. Bactericidal activity was defined as greater than 3 log-fold decrease in colony forming units [64].

S.cerevisiae [11] = assay: Growth inhibition of yeast; format: cell-based; details: Saccharomyces cerevisiae; fluorescent light; read-out: concentration giving 50% growth inhibition
Text: as §4
(§5) All studies were done in triplicate. […] MBC: minimum bactericidal concentrations (µg/mL).

S.aureus 6538™ = assay: Time-kill kinetic assay; details: in 1 minute; 4.6 × 10^8 CFU; fluorescent light
Description: as §6, §7, §8

B.cepacia UCB717 = assay: Time-kill kinetic assay; details: fluorescent light
Description: as §6, §7, §8

S.aureus BAA-44 = assay: Time-kill kinetic assay; details: twice the RB MIC; fluorescent light
Description: as §6, §7, §8

[12] = tested on: B.subtilis, B.cereus, and S.aureus; assay: MIC, agar dilution; format: cell-based; details: fluorescent light; entries 1-4 in Table 2; read-out: MIC (growth inhibition), agar dilution
Text: as §5
We observed that under the illumination conditions the MIC values of RB determined by the agar dilution method are lower than those determined by the broth dilution method (Table 1).

[13] = tested on: biofilms of S.aureus 71080 (VRS8); assay: Anti-biofilm assay; format: cell-based, Staphylococcus aureus; details: fluorescent light
Description: Here, we examined efficacy of RB against biofilms of a drug-susceptible S.aureus 6508™, and drug-resistant S.aureus 71080 (VRS8) and E.faecium NR-32065 under the florescent light and dark conditions.
The biofilms were generated on 12-well plates by incubating each bacterium for five days. The planktonic bacteria in the culture media were gently removed, and fresh media were placed. […] An aliquot of each culture was diluted (x10,000 or x100,000) on agar plates at 37° C. for 24 h. CFU/mL was counted [47, 69].

[14] = tested on: Burkholderia, Salmonella, and Proteus spp.; assay: MIC, broth dilution; details: fluorescent or LED lights
Description: as §9, §10

[15] = tested on: human epidermal keratinocytes (HEKa); assay: Cytotoxicity assay with HEKa cells (stratified epithelium, H&E); details: fluorescent light
Description: In these studies, HEKa cells were differentiated to a stratified squamous epithelium via air-liquid interface; this type of epithelium can be applied as a physiological tissue to study epidermal necrolysis by the treatment of RB.
Cytotoxicity of PV-10 against Human Epidermal Keratinocytes (HEKa) were evaluated in a hanging cell culture insert in a 24-well plate. HEKa (4x10^5 cells/mL, 0.5 mL) cell suspension) was placed into the insert where the outside of the inserts was filled with EpiGRO™ Complete Culture Media (1.5 mL) [67]. The cell suspension was incubated at 37° C. overnight (about 18 hours).
The next day, without removing the original medium, an additional 0.5 mL of the medium was added to the inside of each insert and incubated at 37° C. for 2 days. High quality HEKa approached 100% confluence by the third day of submerged culture. On the 4th day, the media was gently aspirated from each insert. The skin cell cultures were maintained at the air/liquid interface.
The skin culture was incubated at 37° C. for an additional 10 days. During the 10-day incubation, the media was changed every other day and any bubbles were removed from beneath the insert membrane.
After 25 days of 3D skin culture, approximately 6 to 8 layers of live epithelium were produced. […]

[16] = Behaviour in water at stomach pH; format: physicochemical; details: water solution having the acidic pH value of the human stomach
Text: For example, the highly acidic gastric environment (pH 1.5-2 in the fasted state; pH 3-6 in the fed state) rises rapidly to about pH 6 in the duodenum and increases along the small intestine to pH 7.4 at the terminal ileum. The pH value in the cecum drops just below pH 6 and again rises in the colon reaching pH 6.7 at the rectum [Hua, Front Pharmacol 11: Article 524 (April 2020)].

S.cerevisiae [17] = assay: Minimal bactericidal concentration (MBC) assay
Bacteroides fragilis = assay: MIC, broth dilution; details: anaerobic Gram-negative bacterium
Description: We have reinvestigated the bactericidal activity of pharmaceutical-grade of RB against a battery of Gram-positive and -negative aerobic bacteria including Mycobacterium spp. and a Saccharomyces sp. under different light sources (fluorescence, LED, and sun light) and in a dark condition. Fluorescent light used was 17W (1,647 lumens, 63.8 cm^2) and LED was a 9.5 W (800 lumens, 28.3 cm^2), specifics about which are discussed hereinafter. In the studies under sunlight through an architectural window, the 96-well plates were placed on the east side of the building (the BSL-2 lab on the 5th floor, College of Pharmacy, University of Tennessee Health Science Center, Memphis, TN, USA) and the growth inhibition studies were performed between 8 AM and 5 PM (on June 18th, 2021).
Minimum inhibitory concentrations (MICs) were determined by broth dilution microplate alamar blue assay or by OD measurement. All compounds were stored in DMSO or saline (1 mg/100 µL concentration). This concentration was used as the stock solution for all MIC studies. Each compound from stock solution was placed in the first well of a sterile 96 well plate and a serial dilution was conducted with the culturing broth (total volume of 10 µL). […] The absorbance of each well was also measured at 570 and 600 nm via UV-Vis.

In the case of NC[C@H]1O[C@@H](O[C@H]([C@H]2O[C@@H](n3ccc(=O)[nH]c3=O)[C@H](O)[C@@H]2O)[C@H](NCCCC(=O)NCc2ccc(N3CCC(Oc4ccc(OC(F)(F)F)cc4)CC3)cc2)C(N)=O)[C@H](O)[C@@H]1O [APPB, aminouridyl phenoxypiperidinylbenzyl butanamide], the “susceptibility of the RB-resistant strain to the drug” value (from here on “susceptibility … to the drug”) ([1]; dark condition) is reported as “susceptible”, the “MIC (µg/mL) against M.smegmatis 607™ (RB mutant)” value ([1]; dark condition) is reported as 0.20 µg/mL (≈ 0.227 µM) and the “MIC (µg/mL) against M.smegmatis 607™ (wild-type)” value [2] is reported as 0.20 µg/mL (≈ 0.227 µM).

For NCC[C@H](O)C(=O)N[C@@H]1C[C@H](N)[C@@H](O[C@H]2O[C@H](CN)[C@@H](O)[C@H](O)[C@H]2O)[C@H](O)[C@H]1O[C@H]1O[C@H](CO)[C@@H](O)[C@H](N)[C@H]1O [Amikacin, amikacin], the “susceptibility … to the drug” value ([1]; dark condition) was “susceptible” and the MIC ([2]; Mycolicibacterium smegmatis) was 0.78 µg/mL (≈ 1.33 µM).

In the case of CCc1cc(C(N)=S)ccn1 [Ethionamide, ethionamide], the “susceptibility … to the drug” value [1] is reported as “susceptible”.

In the case of NNC(=O)c1ccncc1 [Isoniazid, isoniazid], the “susceptibility … to the drug” value ([1]; dark condition) is reported as “cross-resistance”.

With O=C([O-])c1c(Cl)c(Cl)c(Cl)c(Cl)c1-c1c2cc(I)c(=O)c(I)c-2oc2c(I)c([O-])c(I)cc12.[Na+].[Na+] [RB, 4,5,6,7-tetrachloro-2′,4′,5′,7′-tetraiodo-fluorescein] the confluency lost (Vero cells; 100 µM (97.4 µg/mL), 4 h) was roughly 50%, the “state of the monolayer” value (Vero cells; 100 µM, 1 h exposure) was “intact” and the confluence lost (Vero cells; 1 h) was “About 18%”. The confluence lost (Vero cells; 4 h) was “over 80%”, the “time to complete loss of the cell viability” value (Vero cells; 300 µM) was no more than 2 h and the “concentration tolerated by Vero cells” value (Vero cells; 1 h) was 100 to 200 µM. For the same molecule, the selectivity ratio at 1 h ([3]; for Gram-negatives) was greater than 7.9, the selectivity ratio at 1 h ([3]; for Gram-positives) was greater than 62.5 and the time to kill (E.faecium NR-32065) was no more than 2 min. For the same molecule, the “colonies counted (Dilution 5.8 × 10^11)” value ([4]; first column, PV-10 5.0 µg/mL) was 0 (0 colony), the “CFU/mL (Dilution 5.8 × 10^11)” value ([4]; first column, PV-10 5.0 µg/mL) was 0 (0 colony) CFU/mL and the “colonies counted (Dilution 5.8 × 10^11)” value ([4]; first column, PV-10 10 µg/mL) was 0 (0 colony). The “CFU/mL (Dilution 5.8 × 10^11)” value ([4]; first column, PV-10 10 µg/mL) was 0 (0 colony) CFU/mL, the “colonies counted (Dilution 5.8 × 10^11)” value ([4]; second column, PV-10 5.0 µg/mL) was 35 colonies and the “CFU/mL (Dilution 5.8 × 10^11)” value ([4]; second column, PV-10 5.0 µg/mL) was 9.4 × 10^10 CFU/mL. The “colonies counted (Dilution 5.8 × 10^11)” value ([4]; second column, PV-10 10 µg/mL) was 17 colonies, the “CFU/mL (Dilution 5.8 × 10^11)” value ([4]; second column, PV-10 10 µg/mL) was 4.5 × 10^10 CFU/mL and the “log reduction of viable bacteria in air-exposed biofilms” value ([4]; spray 5.0 or 10 µg/mL solution, 250 µL twice, fluorescent light 1 h, dilution of 5.8×10^9) was 4 log. The MIC [5] was 50 µg/mL and > 100 µg/mL, the “MIC (killing concentration)” value (Enterococcus faecalis) was 0.39 to 0.78 µg/mL and the “killing concentration (MIC)” value (Mycobacterium spp.; dark conditions) was 25000 to 50000 µg/mL. For the same molecule, the MIC (Mycobacterium spp.; illuminated conditions, 5 Mycobacterium spp., entries 25-29) was 12.5 to 25 µg/mL, the “killing concentration (MIC)” value (Mycobacterium spp.; illumination conditions) was 12500 to 25000 µg/mL and the MIC (Gram-negative bacteria) was greater than 100 µg/mL. For the same molecule, the “MIC (killing concentration)” value [6] was 0.39 to 0.78 µg/mL, the MIC (Gram-positive bacteria; dark condition, all Gram-positive bacteria of entries 1-23) was 25 to 100 µg/mL and the MIC (Gram-positive bacteria; under illumination conditions (fluorescent, LED), wide range of Gram-positive bacteria, entries 1-23 in Table 1) was 0.2 to 3.1 µg/mL. The “MIC (killing concentration)” value (Staphylococcus aureus; 7 methicillin-resistant S.aureus (MRSA) strains, fluorescent or LED light) was 0.78 to 3.1 µg/mL, the “concentration required to kill >99% of bacteria” value (Staphylococcus aureus; MIC standard strain, illumination, entry 4) was 1.6 µg/mL and the “MIC (killing concentration)” value (Staphylococcus aureus; vancomycin-resistant S.aureus strains, either lighting condition) was “below 1.0 µg/mL”. For the same molecule, the loss of viability (a S.aureus strain) was “about 80%”, the bactericidal activity [7] was “effectively killed” and the “susceptibility to RB” value (Streptococcus salivarius) was “susceptible”. The time to kill (S.aureus 71080 (VRS8)) was no more than 2 min, the “susceptibility to RB” value (Streptococcus pneumoniae) was “showed resistance” and the toxicological effects [8] was “does not have systemic toxicological effects, mutagenic potential, and female reproductive and development effects”. For the same molecule, the “viable bacteria in biofilm” value ([9]; 50.0 µg/mL (2xMIC under dark)) was “significantly reduced the number of viable bacteria”, the “biofilm eradication, log reduction” value ([9]; 60.0 µg/mL (77×MIC), fluorescent light) was greater than 5 log and the “CFU counted in biofilm” value ([9]; 100 µg/mL, fluorescent light) was “No CFU were counted”. The “viable bacteria in biofilm” value ([9]; 1,000 µg/mL) was “No viable bacteria”, the time to kill ([10]; Gram-negative bacteria) was 5 min and the time to kill ([10]; Gram-positive bacteria) was 1 to 2 min. For the same molecule, the log reduction ([10]; within 2 hours of contact, preliminary studies) was 6 log, the IC50 (S.cerevisiae [11]) was 1.6 µg/mL and the “log reduction of CFU” value (S.aureus 6538™) was 6 log. For the same molecule, the “time required for a 5-log reduction” value (B.cepacia UCB717; 2-times the MIC) was 40 minutes, the “log reduction of the bacteria” value (B.cepacia UCB717; 4-times the MIC, in 5 minutes, 2.9 × 10^8 CFU) was greater than 5 log and the time to kill (S.aureus BAA-44) was no more than 2 min. The MIC [12] was 0.01 to 0.1 µg/mL, the “biofilm, log reduction of viable bacteria” value ([13]; 10.0 µg/mL) was “over 6 log” and the “CFU counted in biofilm” value ([13]; 30.0 µg/mL or higher) was “No CFU were counted”. For the same molecule, the “MIC (killing concentration)” value [14] was 3.13 to 12.5 µg/mL, the “necrosis on the surface tissue” value ([15]; 200 µM, 1 h) was “Some necrosis” and the “necrosis of the stratum corneum cells” value ([15]; 10 and 100 µM, 1 h exposure) was “did not cause necrosis”. For the same molecule, the “appearance of solution at acidic pH” value [16] was “rapid clouding of the admixture and clumping”, the “concentration not killing the yeast” value (S.cerevisiae [17]; dark condition) was greater than 500 µg/mL and the “MBC (to kill >99% of the yeast)” value (S.cerevisiae [17]; fluorescent light) was 400 µg/mL. The concentration tolerated (Bacteroides fragilis) was no less than 100 µg/mL.

In the case of CC(=O)NC[C@H]1CN(c2ccc(N3CCOCC3)c(F)c2)C(=O)O1 [linezolid, reference compound], the biofilm eradication efficacy ([9]; linezolid at 600 µg/mL, compared with RB 30.0 µg/mL) is reported as “same level of efficacy”.

For capreomycin, the “susceptibility … to the drug” value ([1]; dark condition) was “susceptible”, the “MIC (µg/mL) against M.smegmatis 607™ (RB mutant)” value ([1]; dark condition) was 3.13 µg/mL and the “MIC (µg/mL) against M.smegmatis 607™ (wild-type)” value [2] was 3.13 µg/mL.
